According to patent US20210269411A1, “COMFREYNS, ARYLNAPHTHALENE LIGNANS THAT INHIBIT PRO-INFLAMMATORY GENE EXPRESSION, AND PHARMACEUTIC COMPOSITION COMPRISING THEM” (The Procter & Gamble Company, priority 2020, published 2021):
“And” between values parts separate entries of the source, which are not always exact repeats. Equal values may be shown once.

Tested on: IL-1β induced E-selectin expression
Assay: Inhibition of IL-1β induced E-selectin (SELE) mRNA expression in primary HUVEC, real time PCR
Assay type: cell-based, human
Details: for Max. Inhibition (%) / EC [μM] (effective concentration): HUVEC pre-incubated 30 min with compound, then 5 ng/mL IL-1β for 90 min; for Max. Inhibition (%): SELE mRNA by qPCR, at the effective concentration; for EC [μM] (effective concentration): SELE mRNA normalized to GAPDH, at least three independent experiments; for Inhibitory activity against E-selectin expression (in words): IL-1β stimulated HUVEC, 5 ng/mL IL-1β for 90 min
Method: J. Seigner et al. (Frontiers in Pharmacology 10.3389/fphar.2019.00289) reported recently that interleukin-1β (IL-1β) induced E-selectin mRNA levels were inhibited by a comfrey extract by approximately 70% at the starting concentration of 20 μg/ml. E-selectin is a NF-κB-dependent target gene and IL-1β is a well-described pro-inflammatory mediator that exerts an important role in the regulation of immune and inflammatory responses, in particular those involving sterile insults such as trauma and blunt injuries. […] Thus, the anti-inflammatory activity of individual compounds 1, 5, 12 and 14, was tested using IL-1-stimulated HUVEC cells and analyzed by real time PCR determining the fold change in mRNA expression of E-selectin. These were compared to the inhibitory activity of the new arylnaphthalene lignan comfreyn A (15) and globoidnan B (8), malaxinic acid (9) and caffeic acid ethyl ester (16), the latter three identified first time in S. officinale as disclosed herein.
Therefore, primary HUVEC cells were isolated from umbilical cords as described by M. Hoeth et al., Guidance Molecules in Human Endothelial Cells, Plos One 7, 2012 and maintained in M199 medium (Lonza) supplemented with 20% FCS (Sigma), 2 mM L-glutamine (Sigma), penicillin (100 units/mL), streptomycin ([…]), 5 units/mL heparin, and […] ECGS (Promocell), and were used up to passage 5. HUVEC cell were pre-incubated with various concentration of purified compounds (1, 5, 8, 9, 12, 14, 15 and 16) for 30 minutes following stimulation with 5 ng/mL IL-1β (R&D Systems) for 90 min. Cells were then analyzed for the change in mRNA expression of E-Selectin (SELE). Therefore, total RNA was isolated using the PeqGold Total RNA Isolation Kit (VWR International) according to the manufacturer's instructions. 1 μg RNA was reverse transcribed using random hexamers (Fermentas) and murine leukemia virus reverse transcriptase (Thermo Scientific Fisher). Primers were designed using the software “Primer3”. Following primer sequences were used for qPCR: glyceraldehyde 3-phosphate dehydrogenase (GAPDH) forward, 5′-AGAAGGCTGGGGCTCATTT-3′ and reverse, 5′-[…]-3′; E-Selectin (SELE) forward, 5′-CCTGTGAAGCTCCCACTGA-3 and reverse 5′-[…]-3′. Real-time PCR was done with the SsoAdvanced Universal SYBR Green Supermix (BioRad) using the StepOnePlus instrument (Applied Biosystems), and relative mRNA expression normalized to GAPDH. Fold changes in mRNA expression were calculated according to the 2-ΔΔCT method.

| Structure (SMILES) | Max. Inhibition (%) | EC [μM] (effective concentration) [µM] | Inhibitory activity against E-selectin expression (in words) | other results |
| --- | --- | --- | --- | --- |
| CCOC(=O)c1cc2cc(O)c(O)cc2c2c1c(=O)oc1cc(O)c(O)cc12 [Compound 15, comfreyn A] | 50% and 52% | 50 |  | Inhibitory activity against E-selectin expression (in words) (listed as Comfreyn A): inhibition of E-selectin expression; Inhibitory activity against E-selectin expression (in words) (listed as comfreyn A): inhibit the expression of E-selecting mRNA |
| NC(=O)NC1NC(=O)NC1=O (stereo not shown) [Compound 1, allantoin] |  |  | do not show any inhibitor activity |  |
| O=C(O[C@H](Cc1ccc(O)c(O)c1)C(=O)O)c1cc(-c2ccc(O)c(O)c2)c2cc(O)c(O)cc2c1 [Compound 14, globoidnan A] | 35% | 40 |  |  |
| O=Cc1ccc(O)c(O)c1 [Compound 5, protocatechuic aldehyde] |  | 120 |  |  |
| CCOC(=O)/C=C/c1ccc(O)c(O)c1 [Compound 16, caffeic acid ethyl ester] | 70% | 64 |  |  |
| O=C(O[C@H](Cc1ccc(O)c(O)c1)C(=O)O)C1=Cc2cc(O)c(O)cc2[C@H](c2ccc(O)c(O)c2)[C@H]1C(=O)O [Compound 8, globoidnan B] |  |  | did not show any inhibitory activity |  |
| CC(C)=CCc1cc(C(=O)O)ccc1O[C@@H]1O[C@H](CO)[C@@H](O)C(O)[C@H]1O (stereo partly shown) [Compound 9, malaxinic acid] |  | 108 |  |  |
| O=C(/C=C/c1ccc(O)c(O)c1)O[C@H](Cc1ccc(O)c(O)c1)C(=O)O [Compound 12, rosmarinic acid] |  |  | do not show any inhibitor activity |  |
